Reference: patent publication US8790934B2, “Nanoparticles” (Consejo Superior de Investigaciones Cientificas, priority 2000, dated 2014)

Experiment: solubility in methanol and water
Format: physicochemical
Details: for solubility in methanol: methanol (MeOH)
Description: Synthesis of glyconanoparticles: A solution of disulphide 1,2, or 3 (0.012M, 5.5 eq) in MeOH was added to a solution of tetrachloroauric acid (0.025M, 1 eq) in water. NaBH4 (1M, 22 eq) in water was added in small portions with rapid stirring. The black suspension that was formed was stirred for additional 2 hours and the solvent was then removed under vacuum. The crude of the reaction was washed with MeOH and was centrifuged for 10 minutes. The methanol was removed and the process was repeated several times until the starting material was not detected by TLC. The glyco-nanoparticles are completely insoluble in MeOH but quite soluble in water. • They were purified by dialysis: 50 mg of crude product was dissolved in 10 mL of water (NANOpure). This solution was loaded into 10 cm segments of cellulose ester dialysis membrane (SIGMA, MWCO=12400) and placed in 4 L of water (NANOpure). The dark glyconanoparticles solution was collected from the dialysis segments and lyophilized. The products obtained were free of salts and starting material (absence of signals due to disulphide and Na^+ in NMR).
The presentation of the carbohydrate molecules at the nanoparticles surface was then investigated. The molecular properties of the neoglycoconjugates 1, 2 and 3 suffer a differential change after attaching them to the gold surface. […] The Le^x derivative 3 is soluble in methanol and water, its nanoparticle 3-Au, however, is insoluble in methanol and very soluble in water. These differences in solubility can be used to purify the glyconanoparticles from the non-reacted disulfides by washing them with methanol. However, the most significant fact in these changes is that they reveal the influence of clustering at the surface on the carbohydrate presentation to the surrounding.

Row | SMILES | solubility in methanol | solubility in water
1 | OCC1OC(OC2C(CO)OC(OCCCCCCCCCCCSSCCCCCCCCCCCOC3OC(CO)C(OC4OC(CO)C(O)C(O)C4O)C(O)C3O)C(O)C2O)C(O)C(O)C1O (stereo not shown) [Compound 2] | soluble | insoluble
2 | CC(=O)N[C@H]1[C@H](OCCCCCCCCCCCSSCCCCCCCCCCCO[C@@H]2O[C@H](CO)[C@@H](O[C@@H]3O[C@H](CO)[C@H](O)[C@H](O)[C@H]3O)[C@H](O[C@@H]3O[C@@H](C)[C@@H](O)[C@@H](O)[C@@H]3O)[C@H]2NC(C)=O)O[C@H](CO)[C@@H](O[C@@H]2O[C@H](CO)[C@H](O)[C@H](O)[C@H]2O)[C@@H]1O[C@@H]1O[C@@H](C)[C@@H](O)[C@@H](O)[C@@H]1O [Compound 3] | soluble | soluble
